{"source": "patent US20180352845A1", "about": "“NUTRITIONAL COMPOSITIONS AND INFANT FORMULAS TO PROMOTE MYELINATION IN THE BRAIN” (NESTEC S.A., priority 2015, published 2018)", "data": [{"tested_on": "brain myelination (myelin water fraction)", "experiment": "Cross-sectional correlation analysis (GLM) of infant formula nutrient composition vs brain myelination by mcDESPOT MRI", "format": "in vivo, human", "settings": "children up to 5 years fed different infant formulas during infancy; voxel-wise correlations, p<0.05 corrected; inter-variable correlation threshold 0.9", "experimental": "MRI brain scans of infants and children between 0 and 5 years were acquired using a white matter imaging technique. This technique provides a quantitative measure, the Myelin Water Fraction (MWF), which is a surrogate marker of myelin content. When mapped as a function of time across early childhood, myelination trajectories can be generated.\nInfant formula composition: six infant formulas fed to infants participating in study were analyzed for their composition/level of myelin-relevant nutrients.\nInfants included in this study were drawn from a larger longitudinal study of normal brain and behavioral development: the Brown university Assessment of Myelination and Behavior Across Maturation (BAMBAM). To focus on neurotypical development, children with known potential risk factors for learning, neurologic, or psychiatric disorders were specifically excluded during recruitment and enrollment. Thus, children with in utero alcohol or illicit substance exposure, premature (<37 weeks gestation) or multiple birth, fetal ultrasound abnormalities, complicated pregnancy (e.g., preeclampsia), APGAR scores <8, NICU admission, neurological disorder (e.g., head injury, epilepsy), psychiatric or developmental disorders in the infant, parents or siblings (including maternal depression requiring medication) were excluded. Ongoing screenings, such as the MCAT for autism, or CBCL for behavioral problems, were further used to remove enrolled children with clinically concerning behaviors or overt medical conditions (such as autism spectrum disorders).\nA combination of retrospective and prospective data were acquired from parents via detailed medical histories and parental interview on type of infant formula used, percentage of breastfeeding to formula feeding, and length of exclusive breastfeeding. This information was updated at each study visit, which occurred approximately every 6 months for children under 2 years, and yearly for older children. Using this information, children were categorized into one of 2 groups: #1. Exclusively formula-fed; and #2. Exclusively breastfed for at least 90 days (3 months). Children who were fed a combination of breastmilk and formula within 3 months were excluded from our analysis. Infants within the exclusively formula-fed group were further sub-divided based on parental reports of the main infant formula used throughout the first 3 months. Main formula was defined as that given 90% of the time or more (in the case were parents used an alternate brand during vacation, for example).\nUsing these criteria, 94 exclusively formula-fed infants and young children were selected into group #1. These included 13 children who received formula #2; 28 who received formula #5; 8 who received formula #3; 39 who received formula #4; 5 who received formula #1 and 1 who received formula #6. A sample of 52 exclusively breast-fed infants were also selected and matched to the over formula-fed group with regards to mean age, gestation duration, birth weight, male:female ratio, ethnicity ratio, maternal education, family size, and number of languages spoken in the home (in addition to English).\nEach infant was scanned using the mcDESPOT (multicomponent Driven Equilibrium Single Pulse Observation of T1 and T2) white matter imaging technique Deoni et al. (Magn. Reson. Med. 2008, 60:1372-1387), which provides a quantitative measure of the myelin water fraction (MWF) at each imaging point throughout the brain. All infants were scanned during natural (i.e. non-sedated) sleep using acoustically-muffled mcDESPOT imaging protocols. Total imaging times ranged from 19 minutes for the youngest toddlers to 24 minutes for the older 4 year-old children.", "values": [{"compound": "iron", "nutritional drivers for myelination indicated by the final general linear model": "identified drivers"}, {"compound": "CCCCC/C=C\\C/C=C\\C/C=C\\C/C=C\\CCCC(=O)O", "note": "[ARA, arachidonic acid]", "nutritional drivers for myelination indicated by the final general linear model": "identified drivers"}, {"compound": "[P]", "note": "[phosphorus]", "nutritional drivers for myelination indicated by the final general linear model": "identified drivers"}, {"compound": "phosphatidylinositol", "nutritional drivers for myelination indicated by the final general linear model": "identified drivers"}, {"compound": "sphingomyelin", "nutritional drivers for myelination indicated by the final general linear model": "identified drivers"}, {"compound": "[Zn]", "note": "[zinc]", "nutritional drivers for myelination indicated by the final general linear model": "identified drivers"}, {"compound": "[Mg+2]", "note": "[Magnesium]", "nutritional drivers for myelination indicated by the final general linear model": "identified drivers"}, {"compound": "phosphatidylcholine", "nutritional drivers for myelination indicated by the final general linear model": "identified drivers"}, {"compound": "[Ca+2]", "note": "[calcium]", "nutritional drivers for myelination indicated by the final general linear model": "identified drivers"}]}]}
